Assay results as given in article PMC10096453, “One-Pot Synthesis and Evaluation of Antioxidative Stress and Anticancer Properties of an Active Chromone Derivative” (Molecules, 2023).
Like-named read-outs stand apart in the source and are kept apart here.

Assays:
[1] = DPPH radical scavenging assay; type: biochemical; design: DPPH517nm % SA ± SD: dose or concentration left out as unconfirmed; conditions: for DPPH517nm % SA ± SD: mean of three measurements; for EC50: read-out: DPPH517nm EC50 ± SD
Excerpt: (§1) Three in vitro antioxidant assays (DPPH, FRAP, and ABTS) were utilized to evaluate the antioxidant property of the synthesized compounds. The DPPH (α, α-diphenyl-β-picrylhydrazyl) assay is the well-known approach to determine antioxidant activity using a stable free radical DPPH, measure the absorbance change, and calculate the absorbance change in the percentage of scavenging activity. […] For example, the ferric-tripyridyltriazine (Fe^3+-TPTZ, colorless) complex is reduced to ferrous tripyridyltriazine (Fe^2+-TPTZ) at low pH and introduces a blue color with maximum absorption at 593 nm. The change in absorbance is related to antioxidant activity. However, a significant limitation of these in vitro tests is the non-physiological measurement conditions (no enzymatic condition and no transition metal ion chelating activity); therefore, the results obtained may not reflect the antioxidant activity of the source material under the biological conditions that exist in humans and animals. The ABTS assay involves a more drastic radical that is chemically produced. The use of ABTS for antioxidant activity determination of hydrophilic and lipophilic pure compounds has attracted interest due to its solubility in organic and aqueous media and stability in a wide pH range [31].
The DPPH method was followed and modified from a previous study. Trolox was used as a reference. The DPPH stock solution at a concentration of 0.625 mM was prepared in 50% ethanol and kept at 4 °C in the dark. On the day of the experiment, 0.208 mM fresh DPPH working solution was freshly prepared by further diluting with 50% ethanol. […] Each reaction was carried out in a 96-well plate, and 100 μL of test preparation and DPPH solution were added. The 96-well plate was then shaken well for 10 min and kept in the dark at room temperature for 20 min, and the absorbance was recorded at 515–517 nm. According to the method described, delocalization also results in a deep violet color and is quantified as a percentage of scavenging activity. % scavenging activity (SA) = 100 × (Asample − Ablank)/(Acontrol − Ablank)(1) where Acontrol and Asample are the absorbances of the test DPPH without and with a sample, respectively. Ablank is the absorbance of the solvent used. The EC50 values were calculated from the relationship curve of %SA versus sample concentration. The experiment was carried out at least in triplicate.

[2] = FRAP (ferric reducing antioxidant power) assay; type: biochemical; conditions: Trolox equivalent
Excerpt: as §1
The FRAP assay is a method for assessing antioxidant power. Briefly, the FRAP reagent was prepared from acetate buffer pH 3.6, 10 mM TPTZ solution in 40 mM HCl and 20 mM FeCl3.6 H2O in relative proportions of 10:1:1, v/v, respectively. The FRAP reagent was freshly prepared daily. A solution of 5 μL of the sample (3–300 μM, approx.) was mixed with 180 μL of the FRAP reagent in a 96-well plate. The mixture was shaken in the dark for 10 min and incubated at 37 °C for 20 min, and the absorbance was determined at 593 nm. The solution without the sample was used as a blank. All determinations were made in triplicate. Trolox was used as a standard antioxidant and plot the calibration curve between absorbance and concentration. Quercetin was applied as the reference compound. The FRAP values were calculated by comparing the absorbance change in the test sample and represented in μM of Trolox equivalent per μM of sample.

[3] = ABTS radical cation scavenging assay; type: biochemical
Excerpt: as §1
The ABTS assay was prepared by reaction of 5 mL of a 7 mM aqueous ABTS (2,2′-azino-bis (3-ethylbenzthiazoline-6-sulphonic acid) solution and 2.45 mM potassium persulfate solution (K2S2O8). After preparation and storage in the dark for 16 h, the radical cation solution was further diluted in ethanol to absorb about 0.7 at 734 nm. Trolox and test sample solutions were prepared in stock solution with DMSO and diluted with ethanol. A solution of 100 μL of the sample was mixed with 100 μL of the ABTS reagent in a 96-well plate. The mixture was shaken in a dark place for 10 min and incubated at 37 °C for 20 min, and the absorbance was determined at 734 nm. Absorbance determinations were recorded immediately and not more than 1 h after adding the reagent. The solution without the sample was used as a blank. All the determinations were made in triplicate. The sample’s scavenging percentage was calculated from this equation: scavenging percentage = (Absorbance control − Absorbance sample) × 100/Absorbance control. EC50 values were calculated from the relationship curve of %scavenging versus sample concentration.

[4] = MTT cytotoxicity assay, HEK293 cells; type: cell-based; conditions: human, HEK293 cells, 100 μM; for viability at 24 h, 100 µM: read-out: % Viability ± SD (at 100 μM) HEK293 24 h; for viability at 48 h, 100 µM: read-out: % Viability ± SD (at 100 μM) HEK293 48 h
Method: (§2) HEK293, HACAT, and HeLa cells were grown in modified Eagles’ minimum essential medium (EMEM, Gibco) with 10% fetal bovine serum (FBS, Gibco), 1% of 100 U/mL streptomycin and 100 U/mL penicillin (Gibco). Cells were seeded in culture flasks and maintained in an incubator at 37 °C in a humidified atmosphere with 5% CO2. After reaching 80–90% of confluence, cells were detached by incubation with 0.25% trypsin-0.2% EDTA (Gibco) for 5 min and plated for experiments.
(§3) This study examined cell cultures of HEK293, HACAT, and HeLa cells. The cytotoxicity of the test samples was carried out by the MTT (3-(4,5-dimethylthiazol-2-yl)-2,5-diphenyltetrazolium bromide) assay. The cells were seeded in 96-well microliter plates (2.0 × 10^4 cells/well). Stock solutions of the test compounds were prepared in DMSO. After 24 h, cells were treated with different concentrations of samples and diluted with media to obtain the final desired concentration. The treated cells were then incubated at 37 °C and 5% CO2 for 24 and 48 h. After incubation, the medium was replaced with 0.05% w/v of MTT solution in PBS and further incubated for 3 h. The solution was then discarded and DMSO was added to dissolve the formed formazan crystals. Each well’s absorbance (A) was measured at 570 nm using a microplate reader (FLUOstar Omega^TM, BMG Labtech, Ortenberg, Germany). All experiments were carried out in triplicate and repeated for at least three experiments.

[5] = MTT cytotoxicity assay, HACAT cells; type: cell-based; conditions: human; for viability at 24 h, 100 µM: read-out: % Viability ± SD (at 100 μM) HACAT 24 h; for viability at 48 h, 100 µM: read-out: % Viability ± SD (at 100 μM) HACAT 48 h
Method: as §2, §3

[6] = tested on: HeLa cell; experiment: MTT anticancer activity assay, HeLa cells; type: cell-based
Method: as §2, §3

[7] = tested on: HeLa cells; experiment: Cell cycle analysis by flow cytometry; type: cell-based; conditions: 24 h, 2f, 2j, quercetin at IC50, paclitaxel 5 μM
Method: The paclitaxel (5 μM) was performed as the positive control.
The treatment of HeLa cells and compounds was the same as in the apoptosis protocol. The cells were harvested for 200 μL and centrifuged at 600× g for 5 min and washed with PBS. The mixing cells were slowly added 200 μL of ice-cold 70% ethanol and incubated for at least 3 h at −20 °C. Cells were centrifuged and washed with PBS. Finally, cells were stained with 200 μL of Muse® cell cycle reagent and incubated at room temperature for 30 min in the dark. The cell was analyzed by flow cytometry (Guava Muse Cell Analyzer, Luminex, Austin, TX, USA).

[8] = Homo sapiens, 24 h, read-out: % Viability ± SD (at 100 μM) HeLa 24 h
[9] = Homo sapiens, 48 h, read-out: % Viability ± SD (at 100 μM) HeLa 48 h

melting point [°C]	IC50 ([6]; 24 h) [µM]	IC50 ([6]; Homo sapiens, HeLa, 24 h) [µM]	EC50 [1] [µM]	EC50 ([3]; read-out: ABTS734nm EC50 ± SD) [µM]	Structure (SMILES)	DPPH517nm % SA ± SD [1] [%]	FRAP593nm Value ± SD (TE) [2]	ABTS734nm % Scavenging at 500 µM [3] [%]	viability at 24 h, 100 µM [4] [%]	viability at 48 h, 100 µM [4] [%]	viability at 24 h, 100 µM [5] [%]	viability at 48 h, 100 µM [5] [%]	viability at 100 µM [6, 8] [%]	viability at 100 µM [6, 9] [%]	Anticancer activity on cervical cancer cells ([6]; HeLa, 24 h)	Cell cycle phase arrest [7]	Cell population in G0/G1 phase [7] [%]	Cell population in G2/M phase [7] [%]	Cell population in S phase [7] [%]
156 to 158	–	–	–	–	O=C(c1ccccc1)c1c(-c2ccccc2)oc2cccc(O)c2c1=O [2a, 3-Benzoyl-5-hydroxy-2-phenyl-4H-chromen-4-one]	2.23 ± 1.99	0.02 ± 0.004 µM Trolox/1 µM of Synthesized Compounds	10.93 ± 1.44	111 ± 6.37	103 ± 6.05	63.8 ± 3.36	88.5 ± 6.86	91.9 ± 2.06	58.8 ± 2.02	–	–	–	–	–
201 to 203.5	95.7 ± 1.16	95.7	–	–	O=C(c1ccccc1)c1c(-c2ccccc2)oc2ccc(O)cc2c1=O [2b, 3-Benzoyl-6-hydroxy-2-phenyl-4H-chromen-4-one]	5.32 ± 2.43	0.02 ± 0.003 µM Trolox/1 µM of Synthesized Compounds	35.99 ± 1.32	105 ± 2.7	72.4 ± 8.55	75.7 ± 3.38	74.9 ± 1.55	40.9 ± 0.41	24.8 ± 1.05	contained anticancer activity	–	–	–	–
194 to 196	–	–	–	–	COc1ccc2oc(-c3ccccc3)c(C(=O)c3ccccc3)c(=O)c2c1 [2c, 3-Benzoyl-6-methoxy-2-phenyl-4H-chromen-4-one]	5.88 ± 2.65	0.07 ± 0.028 µM Trolox/1 µM of Synthesized Compounds	13.16 ± 0.78	72.5 ± 6.46	74 ± 1.32	62.3 ± 3.04	60.4 ± 0.73	60.67 ± 0.57	82.12 ± 0.11	–	–	–	–	–
270 to 271	–	166.9 ± 0.49	> 750	–	O=C(c1ccccc1)c1c(-c2ccccc2)oc2cc(O)ccc2c1=O [2d, 3-Benzoyl-7-hydroxy-2-phenyl-4H-chromen-4-one]	15.85 ± 4.61	0.02 ± 0.003 µM Trolox/1 µM of Synthesized Compounds	27.59 ± 2.46	88.7 ± 1.33	87.8 ± 1.8	77.8 ± 6.93	72.5 ± 3.41	85.17 ± 0.79	42.36 ± 0.09	contained anticancer activity	–	–	–	–
196 to 197	–	108 ± 4.04	> 750	158 ± 10.9	O=C(c1ccccc1)c1c(-c2ccccc2)oc2cc(O)cc(O)c2c1=O [2e, 3-Benzoyl-5,7-dihydroxy-2-phenyl-4H-chromen-4-one]	46.30 ± 3.61	0.02 ± 0.002 µM Trolox/1 µM of Synthesized Compounds	80.67 ± 0.30	99.7 ± 2.41	93.9 ± 5.34	79.7 ± 3.26	69.1 ± 3.07	76 ± 1.52	26.5 ± 1.13	contained anticancer activity	–	–	–	–
253 to 254	–	172.7 ± 1.66	–	–	COc1cccc(C(=O)c2c(-c3cccc(OC)c3)oc3cc(O)ccc3c2=O)c1 [2g, 7-Hydroxy-3-(3-methoxybenzoyl)-2-(3-methoxyphenyl)-4H-chromen-4-one]	18.32 ± 0.40	0.02 ± 0.008 µM Trolox/1 µM of Synthesized Compounds	11.52 ± 3.56	79.1 ± 0.9	76.7 ± 1.16	81.5 ± 5.17	78.4 ± 5.44	–	46.3 ± 1.14	contained anticancer activity	–	–	–	–
300 to 301	–	–	–	–	COc1ccc(C(=O)c2c(-c3ccc(OC)cc3)oc3cc(O)ccc3c2=O)cc1 [2h, 7-hydroxy-3-(4-methoxybenzoyl)-2-(4-methoxyphenyl)-4H-chromen-4-one]	12.57 ± 6.18	0.06 ± 0.024 µM Trolox/1 µM of Synthesized Compounds	6.55 ± 4.19	77.2 ± 1.93	73.1 ± 0.79	75.2 ± 7.39	71.8 ± 3.27	84.9 ± 2.55	64.2 ± 0.76	–	–	–	–	–
–	–	–	–	–	CC(=O)O[C@H]1C(=O)[C@@]2(C)[C@H]([C@H](OC(=O)c3ccccc3)[C@]3(O)C[C@H](OC(=O)[C@H](O)[C@@H](NC(=O)c4ccccc4)c4ccccc4)C(C)=C1C3(C)C)[C@]1(OC(C)=O)CO[C@@H]1C[C@@H]2O [Paclitaxel, paclitaxel, reference compound]	–	–	–	–	–	–	–	–	–	–	potent phase arrest of G2/M	5.89 ± 0.18	89.12 ± 1.14	4.99 ± 0.96
